Data as given in article PMC5575254, “An allosteric ligand-binding site in the extracellular cap of K2P channels” (Nature Communications, 2017).

How the values were obtained:
[1] = target: T1, TRAAK (Homo sapiens, UniProt Q9NYG8); assay: Whole-cell voltage clamp of CHO cells expressing TRAAK; format: cell-based; conditions: whole-cell
T1 construct: expressed in transfected cells; host or cells: CHO cells, transient transfection
T1 sequence (Q9NYG8 1-393): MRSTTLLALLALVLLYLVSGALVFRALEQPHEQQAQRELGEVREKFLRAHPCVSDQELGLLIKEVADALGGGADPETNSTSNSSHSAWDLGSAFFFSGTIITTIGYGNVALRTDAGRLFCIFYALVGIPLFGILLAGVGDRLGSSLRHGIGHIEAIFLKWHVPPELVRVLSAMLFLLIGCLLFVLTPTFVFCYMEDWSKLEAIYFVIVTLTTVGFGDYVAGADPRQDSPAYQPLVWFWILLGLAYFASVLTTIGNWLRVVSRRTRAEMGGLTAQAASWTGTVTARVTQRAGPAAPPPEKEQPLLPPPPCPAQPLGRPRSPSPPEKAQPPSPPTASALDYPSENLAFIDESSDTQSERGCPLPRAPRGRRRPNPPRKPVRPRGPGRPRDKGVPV
Excerpt: cDNA of the human TREK-1, TREK-2 and TRAAK channels were subcloned into the pEGFPN1 expression vector (Invitrogen), respectively. Mutations were introduced into TREK-1 or TRAAK by PCR using the QuickChange XL sitedirected mutagenesis kit (Agilent Technologies) and were subsequently confirmed by DNA sequencing.
Chinese hamster ovary (CHO) cells were provided by the Cell Bank of Chinese Academy of Sciences (Shanghai, China). CHO cells were maintained in DMEM/F12 (Gibco) supplemented with 10% fetal bovine serum (Gibco) and 100 μg ml^−1 penicillin-streptomycin (Cellgro) in a humidified incubator at 37 °C (5% CO2). For electrophysiology experiments, cells plated in 35 mm tissue culture dishes (Corning Incorporated) were transiently transfected with the plasmids using PolyJet™ reagent (SignaGen) according to the manufacturer’s instructions. Primers used in this study are listed in Supplementary Table 4.
(§1) All electrophysiological recordings were obtained using patch-clamp recordings in two different configurations: (1) whole cell for macroscopic current dose–response curves; and (2) outside-out and inside-out for macroscopic currents recordings.
(§2) All patch-clamp recordings were conducted 36–96 h after transfection with an Axopatch-200B amplifier (Molecular Devices) at room temperature (23–25 °C). The microelectrodes fashioned from 1.5 mm thin-walled borosilicate glass with filament were pulled from Flaming/Brown type micropipette puller (P-97; SUTTER INSTRUMENT) with the resistances of 3–7 MΩ (whole cell) or 7–15 MΩ (outside-out) when filled with a solution containing (in mM): 140 KCl, 2 MgCl2, 10 EGTA, 1 CaCl2, 10 HEPES (pH 7.3, adjusted with KOH). External solution contained (in mM): 150 NaCl, 5 KCl, 0.5 CaCl2, 1.2 MgCl2, 10 HEPES (pH 7.3, adjusted with NaOH). The current signals were filtered at 1 kHz and digitized at a 10 kHz sampling frequency by using DigiData 1440 A.
Data of whole-cell voltage clamp experiments were fitted using doseResp function. The half inhibition concentrations were derived from fits of the dose–response curves to the function:1 I/I0=A1+A2-A1/1+10^logx0-xP, where I 0 and I are current amplitudes before and after application of inhibitors; A 1 and A 2 are constants between 0 and 1; x is the concentration of inhibitor; x o is the concentration when 50% inhibition was reached (IC50), P is the Hill constant.

[2] = system: T2, TREK-1; assay: Outside-out and inside-out patch recordings of TREK-1; format: cell-based, human; conditions: +80 mV
T2 construct: expressed in transfected cells; host or cells: CHO cells, transient transfection
Protocol: as §1, §2
In the outside-out patch recordings and inside-out patch recordings, the inhibitor (10–30 μM TKDC) was applied via dish perfusion. The bath level was kept as low as possible to reduce noise. Currents were recorded at a pipette potential of + 80 mV. […]
mechanical force, lipids, or pH change)? A comprehensive survey would be nice, but even evaluating block +/- one activating stimulus would be a very useful piece of information to know for those interested in using this drug.
Response: We have tested the TKDC-induced inhibition of TREK-1 in addition to the mechanical force using outside-out patch. 10 μM TKDC was applied via dish perfusion. The bath level was kept as low as possible to reduce noise. Currents were recorded at a pipette potential of +80 mV. Mechanical stimulation (-7 mmHg) for patches was applied by suction for the outside-out configuration using a pressure monitor (PM 015D, World Precision Instruments) controlled by clampex 10.6 software. As […]
The main aim of this work is to reveal an allosteric ligand-binding site in the extracellular cap of K2P channels. […]

[3] = Solubility of TKDC (remark); format: physicochemical
[4] = system: TREK-1 internalization; assay: Confocal microscopic analysis of channel internalization (co-localization with Rab5a); format: cell-based, CHO-K1 cells; conditions: 10 μM, 20 min, vs DMSO control
Protocol: In eight-well chamber (Thermo), CHO-K1 cells were co-transfected with PEGFP-N1-TREK1 and OFP-Rab5a. After 24 h, cells were treated with 10 μM TKDC for 20 min at room temperature and DMSO as control. At the end of incubation, cells were washed with PBS, fixed with 4% paraformaldehyde and washed with PBS. Images were taken at × 100 with scan zoom 1.74 using Leica SP8 and 3D reconstruction was done using Imaris software (Bitplane) and co-localization analysis was quantified using Imaris software. An automatic threshold of red and green channels was selected. The data represent images taken from 18 different areas (n = 18).

decrease in the current ([1]; TRAAK, 300 μM TKDC perfused): ~ 75%
IC50 ([1]; CHO cells, WT TRAAK, mean ± s.e.m): 65.9 ± 7 µM
solubility [3]: not very soluble
Structure (SMILES): CS(=O)(=O)N(CC(=O)N1CCc2ccccc2C1)c1ccc(Cl)cc1 [TKDC, N-(4-cholorphenyl)-N-(2-(3,4-dihydrosioquinolin-2(1H)-yl)-2-oxoethyl)methanesulfonamide]
inhibition of TREK-1, outside-out recording ([2]; application to the extracellular face, 10 and 30 μM): consistently inhibited TREK-1
inhibition of TREK-1, inside-out recording ([2]; application to the intracellular side, 10 and 30 μM): did not significantly inhibit TREK-1 activity
effect on activation of TREK-1 by mechanical force ([2]; outside-out patch, 10 μM, -7 mmHg): suppressed the activation of TREK-1 by mechanical force
TREK-1 internalization (co-localization with Rab5a) [4]: did not significantly increase TREK-1 internalization
